# Experimental data from paper PMC8217813, “Bridging Computational Vaccinology and Vaccine Development Through Systematic Identification, Characterization, and Downselection of Conserved and Variable Circumsporozoite Protein CD4 T Cell Epitopes From Diverse Plasmodium falciparum Strains” (Frontiers in Immunology, 2021).
# Key:
# HLA A*0101 = target: T1, HLA A*0101 (Homo sapiens, UniProt P04439, A114D/A174V/A182V/D101N/D185E/E176A/E190D/L180R/Q94H/R68K/S129P/T187R/V100A/V91M/W191G); experiment: biochemical; assay type: binding; conditions: allele A0101; cell-free competition with fluorescently labeled control peptide, fluorescence polarization at 72 hours
# T1 construct: Pure Protein, LLC (ran the assay)
# [1] = tested on: CD4 T cells co-cultured with autologous DCs from PBMCs; assay type: cell-based, human; conditions: positive = Stimulation Index ≥1.5-fold above baseline, 5 µg/mL peptide
sequence,measurement,setting,value
ELDYENDIEK [Cluster 357_CVX154],IC50 (nM),HLA A*0101,Non-Binder
IKKYLKKIKNSISTEWSPCS [ICS6],"Percentage of donors demonstrating IFN-γ responses, DR1","[1]; DR1 donors N=5, ICCS after 14-day co-culture",20%
same,"Percentage of donors demonstrating IL-2 responses, DR1","[1]; DR1 donors N=5, ICCS",20%
same,"Percentage of donors demonstrating IL-4 responses, DR1","[1]; DR1 donors N=5, ICCS",0%
same,"Percentage of donors demonstrating IL-10 responses, DR1","[1]; DR1 donors N=5, ICCS",20%
same,"Percentage of donors demonstrating TNF-α responses, DR1","[1]; DR1 donors N=5, ICCS",20%
same,"Percentage of donors demonstrating IFN-γ responses, DR3","[1]; DR3 donors N=6, ICCS after 14-day co-culture",50%
same,"Percentage of donors demonstrating IL-2 responses, DR3","[1]; DR3 donors N=6, ICCS",33%
same,"Percentage of donors demonstrating IL-4 responses, DR3","[1]; DR3 donors N=6, ICCS",0%
same,"Percentage of donors demonstrating IL-10 responses, DR3","[1]; DR3 donors N=6, ICCS",17%
same,"Percentage of donors demonstrating TNF-α responses, DR3","[1]; DR3 donors N=6, ICCS",33%
same,"Percentage of donors demonstrating IFN-γ responses, DR4","[1]; DR4 donors N=10, ICCS after 14-day co-culture",40%
same,"Percentage of donors demonstrating IL-2 responses, DR4","[1]; DR4 donors N=10, ICCS",30%
same,"Percentage of donors demonstrating IL-4 responses, DR4","[1]; DR4 donors N=10, ICCS",0%
same,"Percentage of donors demonstrating IL-10 responses, DR4","[1]; DR4 donors N=10, ICCS",30%
same,"Percentage of donors demonstrating TNF-α responses, DR4","[1]; DR4 donors N=10, ICCS",30%
same,"Percentage of donors demonstrating IFN-γ responses, DR7","[1]; DR7 donors N=4, ICCS after 14-day co-culture",50%
same,"Percentage of donors demonstrating IL-2 responses, DR7","[1]; DR7 donors N=4, ICCS",50%
same,"Percentage of donors demonstrating IL-4 responses, DR7","[1]; DR7 donors N=4, ICCS",0%
same,"Percentage of donors demonstrating IL-10 responses, DR7","[1]; DR7 donors N=4, ICCS",50%
same,"Percentage of donors demonstrating TNF-α responses, DR7","[1]; DR7 donors N=4, ICCS",25%
same,"Percentage of donors demonstrating IFN-γ responses, DR8","[1]; DR8 donors N=4, ICCS after 14-day co-culture",25%
same,"Percentage of donors demonstrating IL-2 responses, DR8","[1]; DR8 donors N=4, ICCS",0%
same,"Percentage of donors demonstrating IL-4 responses, DR8","[1]; DR8 donors N=4, ICCS",0%
same,"Percentage of donors demonstrating IL-10 responses, DR8","[1]; DR8 donors N=4, ICCS",0%
same,"Percentage of donors demonstrating TNF-α responses, DR8","[1]; DR8 donors N=4, ICCS",0%
same,"Percentage of donors demonstrating IFN-γ responses, DR9","[1]; DR9 donors N=4, ICCS after 14-day co-culture",50%
same,"Percentage of donors demonstrating IL-2 responses, DR9","[1]; DR9 donors N=4, ICCS",50%
same,"Percentage of donors demonstrating IL-4 responses, DR9","[1]; DR9 donors N=4, ICCS",25%
same,"Percentage of donors demonstrating IL-10 responses, DR9","[1]; DR9 donors N=4, ICCS",25%
same,"Percentage of donors demonstrating TNF-α responses, DR9","[1]; DR9 donors N=4, ICCS",50%
same,"Percentage of donors demonstrating IFN-γ responses, DR11","[1]; DR11 donors N=4, ICCS after 14-day co-culture",50%
same,"Percentage of donors demonstrating IL-2 responses, DR11","[1]; DR11 donors N=4, ICCS",25%
same,"Percentage of donors demonstrating IL-4 responses, DR11","[1]; DR11 donors N=4, ICCS",0%
same,"Percentage of donors demonstrating IL-10 responses, DR11","[1]; DR11 donors N=4, ICCS",25%
same,"Percentage of donors demonstrating TNF-α responses, DR11","[1]; DR11 donors N=4, ICCS",50%
same,"Percentage of donors demonstrating IFN-γ responses, DR13","[1]; DR13 donors N=7, ICCS after 14-day co-culture",43%
same,"Percentage of donors demonstrating IL-2 responses, DR13","[1]; DR13 donors N=7, ICCS",29%
same,"Percentage of donors demonstrating IL-4 responses, DR13","[1]; DR13 donors N=7, ICCS",0%
same,"Percentage of donors demonstrating IL-10 responses, DR13","[1]; DR13 donors N=7, ICCS",0%
same,"Percentage of donors demonstrating TNF-α responses, DR13","[1]; DR13 donors N=7, ICCS",43%
same,"Percentage of donors demonstrating IFN-γ responses, DR15","[1]; DR15 donors N=7, ICCS after 14-day co-culture",43%
same,"Percentage of donors demonstrating IL-2 responses, DR15","[1]; DR15 donors N=7, ICCS",29%
same,"Percentage of donors demonstrating IL-4 responses, DR15","[1]; DR15 donors N=7, ICCS",14%
same,"Percentage of donors demonstrating IL-10 responses, DR15","[1]; DR15 donors N=7, ICCS",43%
same,"Percentage of donors demonstrating TNF-α responses, DR15","[1]; DR15 donors N=7, ICCS",43%
LSTEWSPCS [327_3D7 (9)],IC50 (nM),HLA A*0101,Non-Binder
